Test results taken from patent EP0659751A1, “Optically active azole derivatives, their production and use” (TAKEDA CHEMICAL INDUSTRIES, LTD., priority 1993, dated 1995).

System: Candida albicans TA
Experiment: protective effect against experimental infection in mice
Assay type: in vivo, Crj:CDF₁ mice
Conditions: po, 168 h; mice inoculated i.v. with minimum lethal dose of Candida albicans TA; suspension in 0.5% CMC administered orally once immediately after infection; Reed and Muench method from survival rate 7 days after infection
Experimental: The protective effects of the compound of the present invention against the experimental infection in mice are shown in the following Table 1. Test Method: Five-week-old Crj:CDF₁ mice were inoculated with the minimum lethal dose of Candida albicans TA intravenously. The test compound was suspended in a solution of 0.5% sodium carboxymethylcellulose (CMC). The suspension was administered orally once immediately after infection. The activity was expressed in terms of ED₅₀ values calculated by the Reed and Muench method from the survival rate 7 days after infection.

Compound | ED50 [mg/kg]
C[C@@H](n1ncn(-c2ccc(N3CCN(c4ccc(OC(F)(F)C(F)F)cc4)CC3)cc2)c1=O)[C@](O)(Cn1cncn1)c1ccc(F)cc1F [Example 15, 2-[(1R,2R)-2-(2,4-difluorophenyl)-2-hydroxy-1-methyl-3-(1H-1,2,4-triazol-1-yl)propyl]-4-[4-[4-[4-(1,1,2,2-tetrafluoroethoxy)phenyl]-1-piperazinyl]phenyl]-3(2H,4H)-1,2,4-triazolone] | 2.8
C[C@@H](n1ncn(-c2ccc(OCC(F)(F)C(F)F)cc2)c1=O)[C@](O)(Cn1cncn1)c1ccccc1F [Example 16, 2-[(1R,2R)-2-(2-fluorophenyl)-2-hydroxy-1-methyl-3-(1H-1,2,4-triazol-1-yl)propyl]-4-[4-(2,2,3,3-tetrafluoropropoxy)phenyl]-3(2H,4H)-1,2,4-triazolone] | 0.25
C[C@@H](n1ncn(-c2ccc(C(F)(F)F)cc2)c1=O)[C@](O)(Cn1cncn1)c1ccccc1F [Example 17, 2-[(1R,2R)-2-(2-fluorophenyl)-2-hydroxy-1-methyl-3-(1H-1,2,4-triazol-1-yl)propyl]-4-(4-trifluoromethylphenyl)-3(2H,4H)-1,2,4-triazolone] | 0.22
C[C@@H](n1ncn(-c2ccc(OC(F)(F)F)cc2)c1=O)[C@](O)(Cn1cncn1)c1ccccc1F [Example 18, 2-[(1R,2R)-2-(2-fluorophenyl)-2-hydroxy-1-methyl-3-(1H-1,2,4-triazol-1-yl)propyl]-4-(4-trifluoromethoxyphenyl)-3(2H,4H)-1,2,4-triazolone] | 0.18
C[C@@H](n1ncn(-c2ccc(OCC(F)(F)F)cc2)c1=O)[C@](O)(Cn1cncn1)c1ccccc1F [Example 19, 2-[(1R,2R)-2-(2-fluorophenyl)-2-hydroxy-1-methyl-3-(1H-1,2,4-triazol-1-yl)propyl]-4-[4-(2,2,2-trifluoroethoxy)phenyl]-3(2H,4H)-1,2,4-triazolone] | 0.18
C[C@@H](n1ncn(-c2ccc(OC(F)(F)C(F)F)cc2)c1=O)[C@](O)(Cn1cncn1)c1ccccc1F [Example 20, 2-[(1R,2R)-2-(2-fluorophenyl)-2-hydroxy-1-methyl-3-(1H-1,2,4-triazol-1-yl)propyl]-4-[4-(1,1,2,2-tetrafluoroethoxy)phenyl]-3(2H,4H)-1,2,4-triazolone] | 0.18
Cc1nn([C@H](C)[C@](O)(Cn2cncn2)c2ccccc2F)c(=O)n1-c1ccc(OC(F)(F)C(F)F)cc1 [Example 21, 2-[(1R,2R)-2-(2-fluorophenyl)-2-hydroxy-1-methyl-3-(1H-1,2,4-triazol-1-yl)propyl]-5-methyl-4-[4-(1,1,2,2-tetrafluoroethoxy)phenyl]-3(2H,4H)-1,2,4-triazolone] | 0.21
C[C@@H](n1cnn(-c2ccc(OC(F)(F)C(F)F)cc2)c1=O)[C@](O)(Cn1cncn1)c1ccccc1F [Example 22, 4-[(1R,2R)-2-(2-fluorophenyl)-2-hydroxy-1-methyl-3-(1H-1,2,4-triazol-1-yl)propyl]-2-[4-(1,1,2,2-tetrafluoroethoxy)phenyl]-3(2H,4H)-1,2,4-triazolone] | < 0.13
C[C@@H](n1cnn(-c2ccc(OCC(F)(F)C(F)F)cc2)c1=O)[C@](O)(Cn1cncn1)c1ccccc1F [Example 23, 4-[(1R,2R)-2-(2-fluorophenyl)-2-hydroxy-1-methyl-3-(1H-1,2,4-triazol-1-yl)propyl]-2-[4-(2,2,3,3-tetrafluoropropoxy)phenyl]-3(2H,4H)-1,2,4-triazolone] | 0.16
C[C@@H](n1ncn(-c2ccc(OC(F)(F)C(F)F)cc2)c1=O)[C@](O)(Cn1cncn1)c1ccc(F)cc1 [Example 25, 2-[(1R,2R)-2-(4-fluorophenyl)-2-hydroxy-1-methyl-3-(1H-1,2,4-triazol-1-yl)propyl]-4-[4-(1,1,2,2-tetrafluoroethoxy)phenyl]-3(2H,4H)-1,2,4-triazolone] | 0.65
Cc1nn([C@H](C)[C@](O)(Cn2cncn2)c2ccc(F)cc2)c(=O)n1-c1ccc(OC(F)(F)C(F)F)cc1 [Example 26, 2-[(1R,2R)-2-(4-fluorophenyl)-2-hydroxy-1-methyl-3-(1H-1,2,4-triazol-1-yl)propyl]-5-methyl-4-[4-(1,1,2,2-tetrafluoroethoxy)phenyl]-3(2H,4H)-1,2,4-triazolone] | 0.35
C[C@@H](n1cnn(-c2ccc(OC(F)(F)C(F)F)cc2)c1=O)[C@](O)(Cn1cncn1)c1ccc(F)cc1 [Example 27, 4-[(1R,2R)-2-(4-fluorophenyl)-2-hydroxy-1-methyl-3-(1H-1,2,4-triazol-1-yl)propyl]-2-[4-(1,1,2,2-tetrafluoroethoxy)phenyl]-3(2H,4H)-1,2,4-triazolone] | 0.56
C[C@@H](n1cnn(-c2ccc(OCC(F)(F)C(F)F)cc2)c1=O)[C@](O)(Cn1cncn1)c1ccc(F)cc1 [Example 28, 4-[(1R,2R)-2-(4-fluorophenyl)-2-hydroxy-1-methyl-3-(1H-1,2,4-triazol-1-yl)propyl]-2-[4-(2,2,3,3-tetrafluoropropoxy)phenyl]-3(2H,4H)-1,2,4-triazolone] | 0.71
Cc1nn(-c2ccc(OC(F)(F)C(F)F)cc2)c(=O)n1[C@H](C)[C@](O)(Cn1cncn1)c1ccc(F)cc1F [Example 29, 4-[(1R,2R)-2-(2,4-difluorophenyl)-2-hydroxy-1-methyl-3-(1H-1,2,4-triazol-1-yl)propyl]-5-methyl-2-[4-(1,1,2,2-tetrafluoroethoxy)phenyl]-3(2H,4H)-1,2,4-triazolone] | 2
